Data as given in patent publication US6407288B1, “Naphthylsalicylanilides as antimicrobial and antiinflammatory agents” (The Research Foundation of State University of New York, priority 2000, dated 2002).
Values after ≈ are worked out from the molar mass of the structure shown.

How the values were obtained:
A. viscosus = test: MIC microdilution, gram positive; type: cell-based, Actinomyces viscosus; conditions: Actinomyces viscosus; Table 2, Gram Positive
Outline: (§1)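 Anaerobic strains required supplemented half-strength BHI and incubation in 5% CO2, 10% H2, balance N2; aerobic strains used full-strength BHI. Inoculum approx. 1×10^8 CFU/mL; compounds from DMSO, 50 to 0.05 μg/assay; visual MIC.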

Str. pn = test: Mean Streptococcus MIC; type: cell-based; conditions: Streptococcus; Table 5, mean
Method: (§2) The MIC's for the compounds were determined by a modified microdilution tube dilution method described in “Methods for Dilution Antimicrobial Susceptibility Tests for Bacteria that Grow Aerobically” (National Committee for Clinical Laboratory Standards Approved Standards, 1997, NCCLS document M7-A4). In general the modifications were made because of the unique growth requirements for the fastidious oral organisms and for those bacteria that require anaerobic conditions. Reference is also made to “Methods for Antimicrobial Susceptibility of Anaerobic Bacteria” (National Committee for Clinical Laboratory Standards Approved Standards, 1997, NCCLS document M11-A4).
(§3) Briefly, the methods were as follows. Cultures were grown for 18-24hrs (aerobic bacteria) or 48-72 hrs (anaerobic bacteria) in the appropriate medium. For aerobic bacteria full strength brain heart infusion medium (BHI, Difco) was used. For anaerobic bacteria, half strength BHI (18.5 g/L) was supplemented by adding yeast extract (10 g/L), hemin (0.29 mL of a stock solution containing 0.1 g/200 mL dH2O) and menadione (15 mL of a stock solution containing 0.15 mL in 30 mL 95% EtOH) was used. Initial cultures were diluted to approximately 1×10^8 CFU/mL for use as an inoculum. Each assay received 10 μL of the inoculum. The drugs were prepared from a stock solution contained in dimethyl sulfoxide (DMSO) and diluted into the culture medium. Final concentrations of the drugs ranged from 50 to 0.05 μg/assay. The tests were run in duplicate and were incubated appropriately with regard to oxygen requirements for 24 to 48 hrs as required. Anaerobic incubation was an atmosphere of 5% CO2, 10% H2, with the balance N2. The lowest concentration of an antimicrobial agent at which no visible growth is noted was referred to as the MIC.
(§4) This embodiment illustrates the efficacy of the compounds of the present invention against Streptococcus strains. One of the strains, Str.pn.R was obtained from the Children's Hospital in Buffalo (strain 00-041-0614). […] The sensitivity of this strain was tested against several known antibiotics.

Str. pn. R = test: Mean Streptococcus MIC; type: cell-based; conditions: Streptococcus; Table 5, mean; strain resistant to penicillin and erythromycin
Method: as §2, §3, §4

Aa Y4 = test: MIC microdilution, gram negative; type: cell-based, Actinobacillus actinomycetemcomitans; conditions: for MIC: Aggregatibacter actinomycetemcomitans, Y4, Table 3, Gram Negative; for MIC Aa Y4: Table 3 printed a second time, Gram Negative
Method: The MIC's for the compounds were determined by a modified microdilution tube dilution method described in “Methods for Dilution Antimicrobial Susceptibility Tests for Bacteria that Grow Aerobically” (National Committee for Clinical Laboratory Standards Approved Standards, 1997, NCCLS document M7-A4). In general the modifications were made because of the unique growth requirements for the fastidious oral organisms and for those bacteria that require anaerobic conditions. Reference is also made to “Methods for Antimicrobial Susceptibility of Anaerobic Bacteria” (National Committee for Clinical Laboratory Standards Approved Standards, 1997, NCCLS document M11-A4). Briefly, the methods were as follows. Cultures were grown for 18-24hrs (aerobic bacteria) or 48-72 hrs (anaerobic bacteria) in the appropriate medium. For aerobic bacteria full strength brain heart infusion medium (BHI, Difco) was used. For anaerobic bacteria, half strength BHI (18.5 g/L) was supplemented by adding yeast extract (10 g/L), hemin (0.29 mL of a stock solution containing 0.1 g/200 mL dH2O) and menadione (15 mL of a stock solution containing 0.15 mL in 30 mL 95% EtOH) was used. Initial cultures were diluted to approximately 1×10^8 CFU/mL for use as an inoculum. Each assay received 10 μL of the inoculum. The drugs were prepared from a stock solution contained in dimethyl sulfoxide (DMSO) and diluted into the culture medium. Final concentrations of the drugs ranged from 50 to 0.05 μg/assay. The tests were run in duplicate and were incubated appropriately with regard to oxygen requirements for 24 to 48 hrs as required. Anaerobic incubation was an atmosphere of 5% CO2, 10% H2, with the balance N2. The lowest concentration of an antimicrobial agent at which no visible growth is noted was referred to as the MIC. […] The method used was the same as described in Example 1.

S. aureus R2 = test: Staphylococcus MIC; type: cell-based; conditions: second Table 5 (Example 5), strain 00-42-1066
Method: as §2, §3
The S.aureus R2 species is a strain 00-42-1066 from the Children's Hospital in Buffalo. It was isolated from a wound in an individual. It was […]. The sensitivity of this strain was tested agaisnt several known antibiotics.

M. luteus = test: MIC microdilution, gram positive; type: cell-based, Micrococcus luteus; conditions: Micrococcus luteus; Table 2, Gram Positive
Method: The MIC's for the compounds were determined by a modified microdilution tube dilution method described in “Methods for Dilution Antimicrobial Susceptibility Tests for Bacteria that Grow Aerobically” (National Committee for Clinical Laboratory Standards Approved Standards, 1997, NCCLS document M7-A4). In general the modifications were made because of the unique growth requirements for the fastidious oral organisms and for those bacteria that require anaerobic conditions. Reference is also made to “Methods for Antimicrobial Susceptibility of Anaerobic Bacteria” (National Committee for Clinical Laboratory Standards Approved Standards, 1997, NCCLS document M11-A4). Briefly, the methods were as follows. Cultures were grown for 18-24hrs (aerobic bacteria) or 48-72 hrs (anaerobic bacteria) in the appropriate medium. For aerobic bacteria full strength brain heart infusion medium (BHI, Difco) was used. For anaerobic bacteria, half strength BHI (18.5 g/L) was supplemented by adding yeast extract (10 g/L), hemin (0.29 mL of a stock solution containing 0.1 g/200 mL dH2O) and menadione (15 mL of a stock solution containing 0.15 mL in 30 mL 95% EtOH) was used. Initial cultures were diluted to approximately 1×10^8 CFU/mL for use as an inoculum. Each assay received 10 μL of the inoculum. The drugs were prepared from a stock solution contained in dimethyl sulfoxide (DMSO) and diluted into the culture medium. Final concentrations of the drugs ranged from 50 to 0.05 μg/assay. The tests were run in duplicate and were incubated appropriately with regard to oxygen requirements for 24 to 48 hrs as required. Anaerobic incubation was an atmosphere of 5% CO2, 10% H2, with the balance N2. The lowest concentration of an antimicrobial agent at which no visible growth is noted was referred to as the MIC.

P. acnes 11828 = test: MIC microdilution, gram positive; type: cell-based, Propionibacterium acnes; conditions: Cutibacterium acnes, 11828; Table 1, Gram Positive
Outline: as §1

P. acnes 6922 = test: MIC microdilution, gram positive; type: cell-based, Propionibacterium acnes; conditions: Cutibacterium acnes, 6922; Table 1, Gram Positive
Outline: as §1

SMILES	MIC (A. viscosus) [µg/mL]	MIC (Str. pn) [µg/mL]	MIC (Str. pn. R) [µg/mL]	MIC (Aa Y4) [µg/mL]	MIC (S. aureus R2) [µg/mL]	MIC (M. luteus) [µg/mL]	MIC (P. acnes 11828) [µg/mL]	MIC (P. acnes 6922) [µg/mL]	MIC Aa Y4 (Aa Y4)
CCCCc1ccc(C(=O)c2ccc(O)c(C(=O)Nc3cccc(C(F)(F)F)c3)c2)cc1 [BBAmF, reference compound]	> 50	0.45 (≈ 1.02 µM)	> 50	> 50	> 50	3.1 (≈ 7.02 µM)	0.8 (≈ 1.81 µM)	0.2 (≈ 0.453 µM)	NE (NE indicates that the drug was not effective at a concentration >50 micrograms/ml)
N#Cc1cccc(NC(=O)c2cc(C(=O)c3ccc(-c4ccccc4)cc3)ccc2O)c1 [BPAmC, reference compound]	> 50	0.58 (≈ 1.39 µM)	> 50	> 50	> 50	3.1 (≈ 7.41 µM)	12.5 (≈ 29.9 µM)	0.2 (≈ 0.478 µM)	NE (NE indicates that the drug was not effective at a concentration >50 micrograms/ml)
O=C(c1ccc(-c2ccccc2)cc1)c1ccc(O)c(C(=O)Nc2cccc(C(F)(F)F)c2)c1 [BPAmF, reference compound]	> 50	0.84 (≈ 1.82 µM)	> 50	> 50	> 50	3.1 (≈ 6.72 µM)	0.4 (≈ 0.867 µM)	0.2 (≈ 0.433 µM)	NE (NE indicates that the drug was not effective at a concentration >50 micrograms/ml)

More lines, main results first:

MIC (A. viscosus) [µg/mL]	MIC (Str. pn) [µg/mL]	MIC (Str. pn. R) [µg/mL]	MIC (Aa Y4) [µg/mL]	MIC (S. aureus R2) [µg/mL]	MIC (M. luteus) [µg/mL]	MIC (P. acnes 11828) [µg/mL]	MIC (P. acnes 6922) [µg/mL]	SMILES	MIC Aa Y4 (Aa Y4)
3.2 (≈ 8.15 µM)	1.1 (≈ 2.8 µM)	12.5 (≈ 31.9 µM)	6.3 (≈ 16.1 µM)	6.3 (≈ 16.1 µM)	3.1 (≈ 7.9 µM)	6.3 (≈ 16.1 µM)	6.3 (≈ 16.1 µM)	N#Cc1cccc(NC(=O)c2cc(C(=O)c3cccc4ccccc34)ccc2O)c1 [NA1mC]	6.3 micrograms/ml
< 0.1	0.45 (≈ 1.03 µM)	0.78 (≈ 1.79 µM)	3.1 (≈ 7.12 µM)	1.6 (≈ 3.67 µM)	0.8 (≈ 1.84 µM)	0.4 (≈ 0.919 µM)	0.2 (≈ 0.459 µM)	O=C(Nc1cccc(C(F)(F)F)c1)c1cc(C(=O)c2cccc3ccccc23)ccc1O [NA1mF]	3.1 micrograms/ml
